Data published in US11478466B2, “Small molecule promoting osteoblast differentiation” (Cornell University, priority 2019, dated 2022).
Like-named read-outs stand apart in the source and are kept apart here.

Experiments:
[1] = system: alkaline phosphatase (ALP); conditions: 10 μM; for RFU Score (10 μM): 154-analog library, C2C12, duplicate; for RFU Score Threshold ≥ 800: Ex 450/Em 580 nm, rank in brackets not taken; for Fluorescence Z Score Threshold ≥ 10: Z score on DMSO control wells
[2] = system: alkaline phosphatase (ALP); assay: cells; conditions: Mus musculus; for activation at 10 µM: C2C12, 96 h
[3] = read-out: NPA Score Threshold ≥ 5.0 (normalized percent activation)

Structure (SMILES)	RFU Score (10 μM) [1]	activation at 10 µM [2] [%]	other results
CC(C)(O)C#Cc1ccc(-c2[nH]cnc2-c2ccccc2)cc1 [RU-0424480]	575	10.4	
CN1CCC(Cc2noc(CCC(=O)c3ccccc3)n2)CC1 [RU-0262489]			RFU Score Threshold ≥ 800 ([1]; primary screen, C2C12, 4 days): Below Threshold; Fluorescence Z Score Threshold ≥ 10 ([1]; primary screen, C2C12, 4 days): Below Threshold; activation at 10 µM [2, 3]: 5.43%
Cc1cc(C)c2[nH]c(=O)c(CN(C)Cc3cc(-c4cccnc4)no3)cc2c1 [RU-0424469]	536	8.96	
CN1CC2(CCCN(C(=O)c3[nH]cnc3-c3ccccc3)CC2)OC1=O (stereo not drawn) [RU-0245926]	558	9.73	
COc1ccccc1N1CCN(C(=O)c2[nH]cnc2-c2ccccc2)CC1=O [RU-0424472]	397	4.08	
O=C(c1[nH]cnc1-c1ccccc1)N1CCC2(CCCO2)CC1 [RU-0424507]	366	2.99	
Cc1cc(C)c2[nH]c(=O)c(CN3CCOC(CN)C3)cc2c1 (stereo not drawn) [RU-0228809]	341	1.81	
Cc1cc(C)c2[nH]c(=O)c(CN3CCC(NS(C)(=O)=O)CC3)cc2c1 [RU-0424553]	454	6.08	
O=C(Nc1cnc2n1CCCC2)c1[nH]cnc1-c1ccccc1 [RU-0424475]	491	6.39	
COc1ncccc1-n1ccnc1-c1cc2cc(C)cc(C)c2[nH]c1=O [RU-0424468]	508	7.97	
COCCCN1CCN(Cc2cc3cc(C)cc(C)c3[nH]c2=O)CC1 [RU-0424502]	502	7.78	
Cc1cc(C)c2[nH]c(=O)c(CN3CCC4(CCOCC4)CC3)cc2c1 [RU-0227345]	384	3.6	
CCCN(C)CC1CCN(C(C)C(=O)Nc2ccc(C(F)(F)F)cc2)C1 (stereo not drawn) [RU-0219355]			RFU Score Threshold ≥ 800 ([1]; primary screen, C2C12, 4 days): 819 (28); Fluorescence Z Score Threshold ≥ 10 ([1]; primary screen, C2C12, 4 days): Below Threshold; activation at 10 µM [2, 3]: 6.14%
O=C(N[C@H]1CC[C@H]1NC1CCOCC1)c1[nH]cnc1-c1ccccc1 [RU-0424490]	449	5.91	
O=C(NCCc1nnc2n1CCNCC2)c1[nH]cnc1-c1ccccc1 [RU-0424552]	485	7.18	
COc1cccc(-c2[nH]cnc2-c2ccccc2)c1OCCCn1ccnc1 [RU-0424482]	567	10.1	
CO[C@@]12CC[C@H](O)C[C@@H]1N(Cc1cc3cc(C)cc(C)c3[nH]c1=O)CC2 [RU-0424528]	538	9.03	
Cc1cc(C)c2[nH]c(=O)c(CN3CCN(C)[C@@H]4CS(=O)(=O)C[C@@H]43)cc2c1 [RU-0424550]	304	0.78	
Cc1nc(C2CCCN(C(=O)c3[nH]cnc3-c3ccccc3)C2)no1 (stereo not drawn) [RU-0424484]	330	1.72	
Cc1nc2cc(-c3cccc4ccnn34)ccc2s1 [RU-0239646]			RFU Score Threshold ≥ 800 ([1]; primary screen, C2C12, 4 days): Below Threshold; Fluorescence Z Score Threshold ≥ 10 ([1]; primary screen, C2C12, 4 days): Below Threshold; activation at 10 µM [2, 3]: 5.22%
COc1cccc(-c2[nH]cnc2-c2ccccc2)c1OCCCN(C)C [RU-0424545]	433	5.33	

Structure (SMILES)	RFU Score (10 μM) [1]	activation at 10 µM [2] [%]	other results
Cc1cc(C)c2[nH]c(=O)c(CN3CCc4[nH]cnc4C3C(=O)O)cc2c1 (stereo not drawn) [RU-0424488]	462	6.37	
CCC(C)Sc1ccc(-c2[nH]cnc2-c2ccccc2)cn1 (stereo not drawn) [RU-0424478]	361	2.79	
O=C(O)Cc1cc(C2CCN(C(=O)c3[nH]cnc3-c3ccccc3)CC2)[nH]n1 [RU-0424481]	526	8.62	
O=C(c1[nH]cnc1-c1ccccc1)N1CCC(Cc2cccnc2)CC1 [RU-0424489]	551	9.48	
CC(C)CN(C)[C@H]1CN(C(=O)c2[nH]cnc2-c2ccccc2)C[C@@H]1O [RU-0424534]	638	12.6	
c1ccc(-c2nc[nH]c2-c2cccc(CN3CCOCC3)c2)cc1 [RU-0232369]	294	0.43	
CC(=O)NCCC1CCCCN1Cc1cc2cc(C)cc(C)c2[nH]c1=O (stereo not drawn) [RU-0227648]	494	7.48	
NS(=O)(=O)CC1CCN(C(=O)c2[nH]cnc2-c2ccccc2)C1 (stereo not drawn) [RU-0424556]	435	5.4	
O=C(c1[nH]cnc1-c1ccccc1)N1CCCC(c2ccncn2)C1 (stereo not drawn) [RU-0424516]	392	3.89	
Cc1ccc2[nH]c(C(=O)O)c(-c3[nH]cnc3-c3ccccc3)c2c1 [RU-0424445]	364	4.67	
Cc1cc(C)c2[nH]c(=O)c(CN(C)Cc3noc(C4CC4)n3)cc2c1 [RU-0424459]	383	3.58	
O=C(O)CCc1cc2n(n1)CCN(C(=O)c1[nH]cnc1-c1ccccc1)C2 [RU-0424555]	443	5.68	
Cc1cc(C)c2[nH]c(=O)c(CN3C[C@H]4C(=O)NC[C@@]4(C(=O)O)C3)cc2c1 [RU-0424535]	518	8.32	
Cn1cnnc1Sc1ccc(-c2[nH]cnc2-c2ccccc2)o1 [RU-0424466]	527	8.64	
Cc1cc(C)c2[nH]c(=O)c(CN3C[C@H]4CC[C@@H](C3)N(C)C4=O)cc2c1 [RU-0424476]	520	8.41	
CN(C)CC1(O)CCN(C(=O)c2[nH]cnc2-c2ccccc2)C1 (stereo not drawn) [RU-0248829]	325	1.52	
O=C1OCC2(CCN(C(=O)c3[nH]cnc3-c3ccccc3)CC2)O1 [RU-0424470]	497	7.58	
CCOC(=O)N1CCC(Nc2ncnc3ccsc23)CC1 [RU-0269711, ethyl 4-(thieno[2,3-e]pyrimidin-4-ylamino)piperidine-1-carboxylate]			RFU Score Threshold ≥ 800 ([1]; primary screen, C2C12, 4 days): 1070 (7); Fluorescence Z Score Threshold ≥ 10 ([1]; primary screen, C2C12, 4 days): 14.73 (15); NPA Score Threshold ≥ 5.0 (normalized percent activation) ([1]; primary screen, C2C12, 4 days, normalized against rhBMP4 positive and DMSO negative controls): Below Threshold; EC50 ([2]; C2C12, read-out: Measured EC50): 28.3 µM
CO[C@@]12CC[C@@H](O)C[C@@H]1N(Cc1cc3cc(C)cc(C)c3[nH]c1=O)CC2 [RU-0424542]	641	12.7	
O=C(c1[nH]cnc1-c1ccccc1)N1CC(c2cccnc2)C1 [RU-0424453]	323	1.46	
CC1(C#N)CCN(C(=O)c2ccc(-c3[nH]cnc3-c3ccccc3)cc2)CC1 [RU-0424493]	551	9.53	

Structure (SMILES)	RFU Score (10 μM) [1]	activation at 10 µM [2] [%]	other results
O=C(NC1CC(=O)N(CCc2ccccc2)C1)c1[nH]cnc1-c1ccccc1 (stereo not drawn) [RU-0252250]	533	8.85	
Cc1cc(C)c2[nH]c(=O)c(-c3nccn3Cc3ccccn3)cc2c1 [RU-0424465]	427	5.14	
CO[C@@H]1CC[C@@]2(OC)CCN(C(=O)c3[nH]cnc3-c3ccccc3)[C@H]2C1 [RU-0424503]	436	5.45	
CO[C@@]12CC[C@H](O)C[C@@H]1N(C(=O)c1[nH]cnc1-c1ccccc1)CC2 [RU-0424513]	435	5.42	
O=C(NCc1nnc2ccccn12)c1[nH]cnc1-c1ccccc1 [RU-0424533]	607	11.5	
Cc1cc(C)c2[nH]c(=O)c(CN(C)CCCn3cccn3)cc2c1 [RU-0424509]	486	7.19	
CN(C)CC1(O)CCCN(C(=O)c2[nH]cnc2-c2ccccc2)C1 (stereo not drawn) [RU-0424441]	368	3.04	
CCC(c1cccnc1)N(C)Cc1cc2cc(C)cc(C)c2[nH]c1=O (stereo not drawn) [RU-0261450]	538	9.03	
Cc1cc(C)c2[nH]c(=O)c(CN3CCCC[C@H](N(C)C)C3)cc2c1 [RU-0424530]	524	8.55	
Cc1ccc(-n2cc(CN3CCCC(Cn4ccnc4C)C3)cn2)cc1C (stereo not drawn) [RU-0238394]			RFU Score Threshold ≥ 800 ([1]; primary screen, C2C12, 4 days): 914 (15); Fluorescence Z Score Threshold ≥ 10 ([1]; primary screen, C2C12, 4 days): 12.45 (19); activation at 10 µM [2, 3]: 5.54%
Cc1cc(C)c2[nH]c(=O)c(CN3C[C@@H](C)O[C@@H](C)C3)cc2c1 [RU-0424448]	253	-1	
O=C(NC1CC(=O)N(Cc2ccc(F)cc2)C1)c1[nH]cnc1-c1ccccc1 (stereo not drawn) [RU-0424548]	467	6.54	
c1ccc(-c2nc[nH]c2-c2cnc(N3CCOCC3)s2)cc1 [RU-0424540]	603	11.4	
CNC(=O)[C@@H]1C[C@H](N)CN1Cc1cc2cc(C)cc(C)c2[nH]c1=O [RU-0424517]	527	8.64	
Cc1cc(C)c2[nH]c(=O)c(CN(C)Cc3c(C)noc3C)cc2c1 [RU-0259020]	514	8.18	
COc1cc(OC)c(-c2[nH]cnc2-c2ccccc2)c(OC)c1 [RU-0239439]	472	6.72	
O=C(NC1CC1)C1CCCN(C2CCN(c3ccc(C(F)(F)F)cn3)CC2)C1 (stereo not drawn) [RU-0221613]			RFU Score Threshold ≥ 800 ([1]; primary screen, C2C12, 4 days): Below Threshold; Fluorescence Z Score Threshold ≥ 10 ([1]; primary screen, C2C12, 4 days): Below Threshold; activation at 10 µM [2, 3]: 5%
COCC1(N(C)C(=O)c2ccc(-c3[nH]cnc3-c3ccccc3)cc2)CC1 [RU-0424494]	501	7.74	
O=C(c1[nH]cnc1-c1ccccc1)N1CCc2[nH]nc(-c3ccccc3)c2C1 [RU-0424455]	347	2.3	
